{"source": "patent US20090018149A1", "about": "“4,5,6,7-tetrahydrobenzo[b]thiophene derivatives and methods for medical intervention against mycobacterial infections” (priority 2002, published 2009)", "tested_on": "M. smegmatis expressing wildtype PknG", "format": "cell-based, Mycobacterium smegmatis", "details": "10 μM compound, RAW cells, 24 h postinfection; mutant or vector control cleared up to 85%, wild type pknG only 25%"}
{"smiles": "NC(=O)c1c(NC(=O)C2CC2)sc2c1CCCC2", "note": "[Compound 237, 2-(Cyclopropanecarbonyl-amino)-4,5,6,7-tetrahydro-benzo[b]thiophene-3-carboxylic acid amide]", "values": [{"measurement": "clearance of PknG expressing M. smegmatis in macrophages", "value": "as efficient as observed with the mutant or vector control transformants"}]}
